What was measured:
[1] = tested on: STZ mice; assay: Hemorrhage and resuscitation protocol with Pseudomonas aeruginosa respiratory infection in STZ mice; assay type: in vivo; conditions: in response to Atglistatin treatment
From the text: How preventing hyperglycemia can aid recovery and improve survival will be investigated. STZ mice will be subjected to hemorrhage protocol described above, but then resuscitated by fluid replacement to perform a survival surgery. The metabolic status will be followed for up to three days and indices of wound repair and susceptibility to postoperative pneumonia was monitored (FIG. 1). Control and T1DM mice, treated with Atglistatin to inhibit lipolysis or vehicle, will be subjected to the hemorrhage and resuscitation protocol. The ability of Atglistatin to improve survival under baseline conditions, as well as improve wound healing and recovery, will be determined. In addition, it will be determined whether attenuating postoperative hyperglycemia via Atglistatin administration improves survival from postoperative pseudomonal pneumonia and/or improve indices of pneumonia. […] Animals will be monitored for several hours after surgery taking hourly blood glucose measurements. […] Lung injury will be assessed by albumin ELISA in the bronchoalveolar lavage (BAL) fluid. Bacterial counts will be performed in the lung and blood, flow cytometric analysis of BAL cells will be done to assess for leukocyte infiltration and function, and BAL fluid as well as serum will be analyzed for inflammatory cytokine release. […]

[2] = tested on: mice; assay: Rodent hemorrhage and trauma (surgery) model; assay type: in vivo
From the text: The acute changes in blood glucose that occur in a T1DM model were invesitaged. Streptozotocin (STZ)-treated mice were subjected to a hemorrhage protocol to mimic surgical induction of the neuroendocrine stress response in humans (FIG. 1). Adipose tissue lipolysis was controlled via the addition of the small molecule inhibitor Atglistatin. The extent of glycemic excursions and ketogenesis was followed.
Separate rodent models of diabetes were employed to investigate the unique co-morbidities associated with T1DM. For the T1DM model, C57BL/6J mice were subjected to low dose injection of streptozotocin (50 mg/kg) at 6-8 weeks of age (see the website for the Diabetic Complications Consortium).
The protocol for modeling surgery-induced stress has been adapted from several sources and is available to an art worker. Although few human patients undergo extensive hemorrhage during elective surgeries, this rodent protocol is a consistent and reproducible experimental model for surgical stress in humans. Briefly, on the day of the surgery 10-12 week old male mice were fasted for six hours prior to surgery and pre-treated with or without lmg/kg body weight of Atglistatin at four hours prior to surgery to prevent adipose tissue lipolysis. Mice were then anesthetized by continuous inhalation of isoflurane and subjected to a 2-cm ventral midline laparotomy. The abdomen will then be sutured, a catheter was placed in the right femoral artery and mice were hemorrhaged from the left femoral artery to a mean arterial pressure (MAP) of 35-40 mm Hg (T0′). Blood glucose and ketone levels were monitored during the surgery. The mice were followed until 30′ post-hemorrhage and were maintained continuously under anesthesia. At the termination of the experiment, blood was collected to measure serum catecholamines, insulin, cytokines, ketones and glycerol levels, among other possible metabolic parameters.
Rodent hemorrhage and trauma model—To activate the adaptive stress response and emulate the acute hyperglycemia and insulin resistance that develops after surgery, trauma and hemorrhage mice as previously described will be used. Briefly, 10-12 week old male mice are fasted for 4-6 hours prior to surgery and 4 hours before surgery, Atglistatin (1 mg/kg) or vehicle will be injected intraperitoneally. Mice are anesthetized by continuous inhalation of 1.5% isoflurane and 98.5% 02 throughout all procedures. After the mice are shaved, surgery will begin with a 2-cm ventral midline laparotomy. The abdomen is then sutured and the wounds bathed with 1% lidocaine to reduce pain. A catheter is placed in the right femoral artery for monitoring mean arterial pressure (MAP). To replicate the blood loss during a surgery, mice are hemorrhaged from the left femoral artery to an MAP of 35-40 mmHg over a 10-minute period. Once the MAP reaches 35-40 mmHg, the […]. […] Control mice are subjected to trauma alone. Mice are subjected to anesthesia, laparotomy, and catheterization. […] Blood glucose levels are monitored during the surgery.

[3] = target: T1, pancreatic lipase (Homo sapiens, UniProt P16233); conditions: cited from earlier work
T1 sequence (P16233 17-465): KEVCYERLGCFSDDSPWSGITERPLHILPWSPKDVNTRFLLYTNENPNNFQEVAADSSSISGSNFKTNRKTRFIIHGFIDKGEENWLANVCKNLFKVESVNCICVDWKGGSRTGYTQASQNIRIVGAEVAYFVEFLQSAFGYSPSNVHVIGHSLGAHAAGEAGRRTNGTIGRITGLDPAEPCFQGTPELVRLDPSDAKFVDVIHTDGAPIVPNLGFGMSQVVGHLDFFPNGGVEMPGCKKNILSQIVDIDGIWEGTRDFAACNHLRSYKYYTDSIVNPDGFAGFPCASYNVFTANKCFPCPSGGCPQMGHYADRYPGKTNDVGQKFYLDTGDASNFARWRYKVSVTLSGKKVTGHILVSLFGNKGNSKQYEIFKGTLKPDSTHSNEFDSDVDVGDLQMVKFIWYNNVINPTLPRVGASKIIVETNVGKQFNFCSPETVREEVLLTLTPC

[4] = target: T2, lipoprotein lipase (Homo sapiens, UniProt P06858); conditions: cited from earlier work
T2 sequence (P06858 28-475): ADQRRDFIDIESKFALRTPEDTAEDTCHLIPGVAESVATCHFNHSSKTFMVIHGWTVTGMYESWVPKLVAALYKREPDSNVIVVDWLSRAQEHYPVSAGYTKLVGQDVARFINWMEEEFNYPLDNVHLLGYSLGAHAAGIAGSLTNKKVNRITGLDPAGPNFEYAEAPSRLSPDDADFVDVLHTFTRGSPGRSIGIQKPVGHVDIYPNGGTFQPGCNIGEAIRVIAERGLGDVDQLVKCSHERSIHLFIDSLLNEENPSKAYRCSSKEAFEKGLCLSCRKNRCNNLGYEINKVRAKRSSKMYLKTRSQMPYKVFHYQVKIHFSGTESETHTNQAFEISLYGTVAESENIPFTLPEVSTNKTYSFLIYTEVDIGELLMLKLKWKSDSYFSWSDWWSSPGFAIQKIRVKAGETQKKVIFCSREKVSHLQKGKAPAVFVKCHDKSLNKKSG

Compound: CN(C)C(=O)Nc1cccc(-c2ccc(N(C)C)cc2)c1 [Atglistatin, N′-[4′-(dimethylamino) [1,1′-biphenyl]-3-yl]-N,N-dimethyl-urea]
- immune cell function [1]: restored to levels comparable with normoglycemic mice
- adipose tissue lipolysis as assessed by serum glycerol levels ([2]; control mice, pre-treated with lmg/kg body weight four hours prior to surgery, FIG. 2B): attenuating adipose tissue lipolysis
- circulating glycerol (lipolysis) ([2]; mice, Atglistatin 1 mg/kg intraperitoneally 4 hours before surgery): reduction in circulating glycerol
- hemorrhage-induced hyperglycemia ([2]; mice, Atglistatin 1 mg/kg intraperitoneally 4 hours before surgery, FIG. 3A): effective in preventing hemorrhage-induced hyperglycemia
- insulin resistance in adipose tissue and skeletal muscle ([2]; mice, Atglistatin 1 mg/kg intraperitoneally 4 hours before surgery, FIG. 3B): attenuation of insulin resistance in adipose tissue and skeletal muscle
- stress-induced lipolysis ([2]; pharmacological inhibition of ATGL): largely blocks stress-induced lipolysis
- inhibition of pancreatic lipase [3]: does not inhibit
- inhibition of lipoprotein lipase [4]: does not inhibit

Source: patent US20180256623A1, “COMPOSITIONS AND METHOD FOR REGULATING ADIPOSE TISSUE LIPOLYSIS, INSULIN-RESISTANCE, AND HYPERGLYCEMIA” (University of Virginia Patent Foundation, priority 2015, published 2018)
